Measured values taken from patent US12595269B2, “Morpholine-like monoamine releasers” (Solvonis Therapeutics Ireland Holdings Limited, priority 2022, dated 2026).
Like-named read-outs stand apart in the source and are kept apart here.

Legend:
[1] = biological target: T1, SERT (serotonin release) (Rattus norvegicus, UniProt P31652); assay: Serotonin release filtration assay in rat cortex synaptosomes; type: cell-based
T1 construct: from tissue; host or cells: rat frontal cortex, crude synaptosomes
T1 sequence (P31652 whole entry): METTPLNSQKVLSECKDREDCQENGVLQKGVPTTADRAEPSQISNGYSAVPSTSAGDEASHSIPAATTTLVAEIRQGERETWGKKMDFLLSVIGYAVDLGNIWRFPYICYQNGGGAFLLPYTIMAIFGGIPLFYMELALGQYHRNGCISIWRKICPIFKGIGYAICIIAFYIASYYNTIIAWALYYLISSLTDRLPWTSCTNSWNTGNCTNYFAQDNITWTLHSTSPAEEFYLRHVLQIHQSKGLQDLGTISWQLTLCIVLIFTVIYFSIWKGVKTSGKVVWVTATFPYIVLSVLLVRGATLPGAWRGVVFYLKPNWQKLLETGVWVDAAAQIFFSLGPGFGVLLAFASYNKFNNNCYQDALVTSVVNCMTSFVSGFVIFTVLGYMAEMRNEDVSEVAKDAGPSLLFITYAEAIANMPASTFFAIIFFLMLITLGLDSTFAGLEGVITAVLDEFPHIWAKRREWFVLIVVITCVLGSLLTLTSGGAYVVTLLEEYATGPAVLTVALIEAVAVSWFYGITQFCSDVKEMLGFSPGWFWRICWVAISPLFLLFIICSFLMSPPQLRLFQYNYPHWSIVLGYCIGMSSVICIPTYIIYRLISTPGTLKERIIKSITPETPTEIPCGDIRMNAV
Description: Methods and Procedure—Release: The potency of the disclosed compounds for stimulating dopamine (DA) release was measured by an endpoint release filtration assay in a 96-well format using rat synaptosomes, essentially as described by Sandtner et al., Mol. Pharmacol., 2016; 89(1):165-75, and Baumann et al., Neuropsychopharmacol., 2013; 38:552-562, with some variations.
One male rat was sacrificed and striatum/cortex regions were dissected over ice. The striatum portions were weighed and put in a glass tube for homogenization, containing ice-cold 0.32 M sucrose (dilution 1:24 w/v), while the frontal cortex tissue was diluted in ice-cold 0.32 M sucrose, 1:20 w/v. Tissues were homogenized and centrifuged for 10 mins at 1000×g. The two supernatants from striatum and cortex (crude synaptosomes) were retained on ice until use.
Test compounds were then serially diluted 1:4 in neat DMSO as concentration-response curves (CRC) of 11 points. To each well of a 2-mL 96 deep-well plate (Whatman UNIPLATE 96 well) were added: 2 μL of CRC of test compounds or 2 μL of DMSO (no-release condition) or 2 μL of MDMA 10 mM solution (final 50 μM, for maximal release), followed by 200 μL/well of complete Krebs-phosphate buffer (126 mM NaCl, 2.4 mM KCl, 0.83 mM CaCl2, 0.8 mM MgCl2, 0.5 mM KH2PO4, 0.5 mM Na2SO4, 11.1 mM Glucose, 0.05 mM pargyline, 1 mg/mL ascorbic acid, freshly added, pH 7.4), containing 1 μM reserpine to block vesicular uptake of substrate. Desipramine (100 nM) and citalopram (100 nM) were also added to the release assay buffer in order to inhibit NET and SERT uptake, respectively. The final compound dilution, then, was 1:200 in 0.5% DMSO.
The raw data (cpm) from residual radioactivity onto the filter were elaborated for the determination of pEC50/EC50 values. Specifically, the compound effect was expressed as the percent of maximal release obtained with 50 μM MDMA (100% release) in comparison to vehicle (0.5% DMSO, 0% release). Both MDMA and D-amphetamine in CRC were used as internal controls in each release experiment. In each plate, for both 0% and 100% of release, the signal window is monitored performing Z′ calculations using raw data of four replicates.
Synaptosomes were then loaded with ^3H-5HT for 60 minutes at RT. After dispensing loaded synaptosomes onto a compound plate (200 μL/well), the release reaction proceeded for an additional 15 minutes. Stop by filtration, counting, and data elaboration were performed as described for DA release.

[2] = Plasma protein binding by equilibrium dialysis, human plasma; type: in vitro ADME; settings: pH 7.4
Description: Methods and Procedure: This study was performed in agreement with the previously described procedures to assure data integrity and adherence to GLP standards. Plasma protein binding and blood tissue binding of test items (0.5 μM) was determined using biological samples from male Sprague Dawley (SD) rats and humans. […] Dexamethasone was used as a control for lung tissue binding. Various biological samples were spiked with test compounds according to the methods that follow.
Preparation of plasma or blood samples: An appropriate amount of test compound was dissolved in DMSO to yield a 10 mM solution. Further dilutions, to obtain 50 μM working solutions (WS), were then prepared using 50% acetonitrile in Milli-Q water. These 100×WS were used to spike plasma or blood to obtain a final concentration of 0.5 μM. From this initial spiking solution, control samples (n=3), referred to as T=0, were immediately extracted and used to calculate the recovery of the test item.
An equilibrium dialysis method was performed to determine protein binding in the various biological samples described herein. Materials were prepared and methods were in accordance with the following procedures. […]
Dialysis buffer was prepared by dissolving Na2HPO4 8.69 g, KH2PO4 1.90 g, and NaCl 4.11 g in 1 L of MilliQ water, and adjusting the pH to 7.4 with H3PO4. […] In order to control the integrity of the membrane after the dialysis process, the presence of protein was assessed in the buffer compartment. […]
Samples were analyzed in a LC-MS/MS system using an analytical method to monitor the compound to internal standard peak area ratios as representative of the compound concentrations. Alternatively, samples were analyzed by RapidFire.
Protein binding in plasma, blood, brain, and lung tissue samples were determined with the following formula: Afu=Buffer/x, wherein “x” may be plasma, blood, brain, or lung, and “Afu” is the apparent fraction unbound, and the other variables refer to the analyte/internal standard ratio determined in their specific compartment (buffer, plasma, blood, brain homogenate, and lung homogenate); […]

[3] = rat cortex synaptosomes, % of release by 50 μM MDMA, read-out: SERT release pEC50 (converted)

Structure (SMILES)	EC50 [1, 3] [nM]	fraction unbound at 5 h, 0.5 µM [2]	EC50 ([1]; serotonin release, read-out: EC50 to influence SER release) [nM]
Clc1ccc([C@]23CN[C@H](CO2)C3)cc1Cl (single isomer, unassigned) [516A]	18.2	–	–
Clc1ccc([C@@]23CN[C@@H](CO2)C3)cc1Cl (single isomer, unassigned) [518A]	17	0.0143	–
Clc1ccc(C23CNC(CO2)C3)cc1Cl (stereo not shown) [522A, 1-(3,4-dichlorophenyl)-2-oxa-5-azabicyclo[2.2.1]heptane]	19.1	0.021	22
CNC(C)Cc1ccc2c(c1)OCO2 (stereo not shown) [MDMA, reference compound]	–	> 0.5	–
